Test results from US20180008587A1, “THIOHYDANTOIN ANDROGEN RECEPTOR ANTAGONISTS FOR THE TREATMENT OF CANCER” (Jaressen Pharmaceutica NV, priority 2016, published 2018).
Changes are numbered by the printed parent chain.

Experiments:
[1] = molecular target: T1, AR H874Y (Homo sapiens, UniProt P10275, H875Y); experiment: Luciferase transcriptional reporter assay, mutant AR, HepG2, antagonist mode; format: cell-based; settings: HepG2, 90 pM R1881, 48 hours; * denotes incomplete inhibition (otherwise 100%); read-out: Antagonism; IC50, AR construct H874Y
T1 construct: expressed in transfected cells; host or cells: HepG2
T1 sequence (P10275 1-920 H875Y): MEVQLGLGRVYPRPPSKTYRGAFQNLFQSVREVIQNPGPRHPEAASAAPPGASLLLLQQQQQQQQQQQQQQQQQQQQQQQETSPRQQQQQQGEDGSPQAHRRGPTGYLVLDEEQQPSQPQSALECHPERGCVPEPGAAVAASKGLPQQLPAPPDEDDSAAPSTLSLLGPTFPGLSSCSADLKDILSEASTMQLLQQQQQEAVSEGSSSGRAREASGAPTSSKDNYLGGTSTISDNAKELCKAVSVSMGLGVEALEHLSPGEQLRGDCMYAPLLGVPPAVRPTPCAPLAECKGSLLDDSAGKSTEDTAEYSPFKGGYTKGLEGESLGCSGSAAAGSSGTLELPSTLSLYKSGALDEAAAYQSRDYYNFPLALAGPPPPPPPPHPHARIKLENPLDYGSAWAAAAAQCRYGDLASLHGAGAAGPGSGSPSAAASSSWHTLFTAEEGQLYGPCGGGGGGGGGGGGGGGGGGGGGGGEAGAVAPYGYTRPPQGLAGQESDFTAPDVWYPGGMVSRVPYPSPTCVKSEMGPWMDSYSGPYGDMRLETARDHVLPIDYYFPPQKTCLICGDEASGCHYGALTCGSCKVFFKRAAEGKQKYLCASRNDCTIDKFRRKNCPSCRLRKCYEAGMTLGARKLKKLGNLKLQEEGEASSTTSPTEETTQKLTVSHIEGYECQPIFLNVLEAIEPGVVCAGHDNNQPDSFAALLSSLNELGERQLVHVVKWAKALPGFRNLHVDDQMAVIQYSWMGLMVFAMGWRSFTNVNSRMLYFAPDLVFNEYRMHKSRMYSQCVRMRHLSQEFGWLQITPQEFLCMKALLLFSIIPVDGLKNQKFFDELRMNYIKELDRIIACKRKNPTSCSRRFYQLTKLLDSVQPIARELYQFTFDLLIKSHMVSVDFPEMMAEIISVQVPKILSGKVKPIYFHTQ
Method: (§1) HepG2 cells were maintained in EMEM supplemented with 10% FBS. One day before transfection, the media was changed to EMEM with 10% CSS. T-150 flasks were transiently transfected using 120 μL Lipofectamine 2000 (Life Technologies), 30 μg mutant cDNA (expression vector)—mutant cDNA tested were L701H, T877A, W741C and H874Y—and 40 μg 4×ARE-Luciferase (reporter vector) in OptiMEM and the flasks were incubated overnight. Cells were then trypsinized, counted and resuspended at 500,000 cells/mL. For agonist mode, the compounds of Formula (I) are serially diluted and 50 μL of the compound added per well. 50 μL of the cells are added to each well and incubated for 48 hours. For antagonist mode, a final concentration of 90 pM R1881 was added to the diluted compounds and incubated for 48 hours. The plates were then assayed using SteadyGlo and read on the Envision. Percent Stimulation and Inhibition is determined and analyzed using GraphPad Prism.
(§2) All values are calculated relative to the activity of R1881 induced androgen receptor activity (n≧3).

[2] = molecular target: T2, AR L701H (Homo sapiens, UniProt P10275, L702H); experiment: as above; format: cell-based; settings: HepG2, 90 pM R1881, 48 hours; * denotes incomplete inhibition (otherwise 100%); read-out: Antagonism; IC50, AR construct L701H
T2 construct: expressed in transfected cells; host or cells: HepG2
T2 sequence (P10275 1-920 L702H): T1 sequence (P10275 1-920 H875Y) with L702H, Y875H
Method: as §1, §2

IC50 [1]: 1950 nM
IC50 [2]: 3360 nM
SMILES: N#Cc1ncc(N2C(=O)C3(CCC3)N(c3ccc(OC4CCNCC4)cc3)C2=S)cc1C(F)(F)F [Cpd 35, 5-[5-oxo-8-[4-(4-piperidyloxy)phenyl]-7-thioxo-6,8-diazaspiro[3.4]octan-6-yl]-3-(trifluoromethyl)pyridine-2-carbonitrile]
